Laboratory results taken from paper PMC4464647, “ANO1 (TMEM16A) in pancreatic ductal adenocarcinoma (PDAC)” (Pflugers Archiv, 2014).

Legend:
Assay type in all cases: cell-based, human
HPDE cells = test: Fura-2 measurement of free intracellular calcium, ATP stimulation; conditions: for effect on basal [Ca2+]i: inhibitor 20 μM
Method: (§1) HPDE and BxPC-3 cells were incubated with 2 μM Fura-2 AM (Sigma-Aldrich, Denmark) for 30 min at 37 °C. Cells were subsequently washed with Krebs solution containing (in mM) 150 NaCl, 6 KCl, 1.5 CaCl2, 1 MgCl2, 10 glucose, and 10 HEPES; pH was adjusted to 7.4 using NaOH. Coverslips were mounted on a recording chamber. In the beginning of the experiment, cells were perfused with Krebs solution at 4 ml/min until baseline was stable. […] Changes in [Ca^2+]i were measured by a TIRF iMIC microscope (TILL Photonics, Germany). Fura-2 AM loaded cells were illuminated at 340 nm for 80 ms and 380 nm for 80 ms at 1 s intervals using a TILL Polychrome monochromator. Five hundred-nanometer emission images were captured by an image-intensifying, charge-coupled device (CCD) camera (TILL Photonics, Germany) and digitized by an image processing system (TILL Photonics, Germany). The monochromator and CCD camera were controlled by LA Live Acquisition software, which was also used for image analysis. The [Ca^2+]i was presented as the Fura-2 ratio of the fluorescence signals obtained at 340/380 nm.
(§2) Fig. 8 Cl^− channel inhibitors alter ATP-induced Ca^2+ signals. Intracellular Ca^2+ measurements in FURA-2 loaded HPDE and BxPC-3 cells. a Representative single-cell traces of individual experiments. Different substances were applied as indicated. […] (n) = number of individual experiments; each containing between 5–45 single cells.***p ≤ 0.001 when compared to no inhibitor condition; ^## p ≤ 0.01 when compared with HPDE no inhibitor
(§3) Activation of CaCC requires an increase in [Ca^2+]i, which can be achieved by stimulation of receptors such as purinergic receptors. Therefore, we studied the effect of Cl^− channel inhibitors on changes in [Ca^2+]i induced by purinergic signaling. We chose HPDE cells with very low expression levels of ANO1 and the highly ANO1 overexpressing cell line BxPC-3 for investigation. Fura-2 loaded HPDE and BxPC-3 cells were stimulated with ATP (10 μM) (Fig. 8) or exposed to the inhibitor prior to stimulation. ATP stimulation caused a 0.46 ± 0.03 peak increase in the Fura-2 ratio in HPDE and 0.55 ± 0.02 in BxPC-3 cells. […] However, no effect of the inhibitor on basal Ca^2+ level was observed.

BxPC-3 cells [1] = test: as above; conditions: for effect on basal [Ca2+]i: BxPC-3, inhibitor 20 μM
Method: as §1, §2, §3

BxPC-3 cells [2] = test: BrdU incorporation cell proliferation assay; conditions: BxPC-3, inhibitor 20 μM, 24 h
Method: To assess cell proliferation and apoptosis, cells were plated in duplicates on a 96-well plate and incubated in 100 μl of the cell line appropriate media described above. Cells were transfected with siRNA soon after complete attachment (approx. 3 h after seeding). Cells were treated with vehicle, 20 μM gemcitabine, 20 μM T16Ainh-A01, or 10 μM free NS3728 (see below) after culture in a humidified 37 °C and 5 % CO2 incubator overnight. BrdU incorporation was measured using Cell Proliferation ELISA, BrdU (chemiluminescent) (Roche Diagnostics A/S, Denmark) following the manufacturer’s instructions. Caspases 3, 6, and 7 activation was evaluated using Homogeneous Caspases Assay (fluorimetric) (Roche Diagnostics A/S, Denmark).
Fig. 7 VRAC, but not ANO1, regulates cellular proliferation. a Summary of BrdU incorporation in HPDE, Capan-1, AsPC-1, and BxPC-3 cells after various treatments as indicated. Cells were transfected shortly after complete attachment (approx. 3 h) and BrdU incorporation was assessed 36 h after transfection. To investigate effect of inhibitors, cells were incubated for 24 h with respective inhibitor. Values shown are relative to appropriate control. Data shown represents mean ± s.e.m. of n = 4–6 individual experiments. **p ≤ 0.01 and ***p ≤ 0.001 when compared with control

| Structure (SMILES) | effect on basal [Ca2+]i (HPDE cells) | effect on basal [Ca2+]i (BxPC-3 cells [1]) | proliferation (BrdU incorporation) (BxPC-3 cells [2]) | ATP-induced change in Fura-2 ratio after inhibitor (HPDE cells; inhibitor 20 μM before ATP 10 μM) | ATP-induced change in Fura-2 ratio after inhibitor (BxPC-3 cells [1]; BxPC-3, inhibitor 20 μM before ATP 10 μM) |
| --- | --- | --- | --- | --- | --- |
| CC(C)(C)C1CCc2c(sc(NC(=O)c3ccco3)c2C(=O)O)C1 (centres unmarked) [CaCCinh-A01, 6-(1,1-dimethylethyl)-2-[(2-furanylcarbonyl)amino]-4,5,6,7-tetrahydrobenzo[b]thiophene-3-carboxylic acid] | reversible increase | reversible increase | larger effect | – | – |
| CCc1c(C)nc(SCC(=O)Nc2nc(-c3ccc(OC)cc3)cs2)[nH]c1=O [T16Ainh-A01, 2-[(5-Ethyl-1,6-dihydro-4-methyl-6-oxo-2-pyrimidinyl)thio]-N-[4-(4-methoxyphenyl)-2-thiazolyl]acetamide] | no effect | no effect | slight, but non-significant decrease of proliferation | 0.32 ± 0.03 | 0.42 ± 0.03 |
